From patent US20240400500A1, “SMALL-MOLECULE COMPOUND HAVING NAPHTHALENETHIOL ETHER STRUCTURE, AND USE THEREOF” (HANGZHOU PHECDAMED CO., LTD., priority 2021, published 2024)

How the values were obtained:
[1] = tested on: HEK293T-mtkeima cells; experiment: Functional test of mitophagy inducer, direct treatment without CCCP; assay type: cell-based, human; settings: for Ability to induce mitophagy: HEK293T-mtkeima cells, number of cells in which mitophagy occurs/number of total cells
Method: Seeding human embryonic kidney transformed cells HEK293T-mtkeima cells in a 96-well black ELISA Plate at 1.5*10^5 cells/ml, 100 μl per well; after 25 hours, adding UMI-77 and compounds I-1˜I-26 respectively, and setting up 3 replicates; under 37° C., 5% CO2 incubation conditions, taking picture with biotekcytation5 every few hours for a total of 20 hours. Taking the bright field as the focusing channel, and taking 9pictures per well, and processing the pictures by using the instrument software and converting into the degree of mitophagy strength, exemplifying by UMI-77 and Compound I-4, the results are shown in FIG. 1.
Note: The HEK293T-mtkeima cells used in the experiments are HEK293T-mtkeima cells obtained according to the method mentioned in the literature [Cen, X. et al. Nat Commun 11, 5731 (2020).], by using lentiviral packaging technology, and stably expressing mtkeima protein in HEK293T cells. The CCCP used in the experiments is purchased from TargetMol (Item No. T7081).

[2] = In vitro liver microsome stability test (mice); assay type: in vitro ADME; settings: mice liver microsomes, NADPH, 37° C., 0-45 min
Method: (§1) Selecting Ketanserin as the reference compound. The specific method is as follows:
(§2) Preparing 0.1M K3PO4 (pH 7.4) buffer and 3×NADPH stock solution (6 mM, 5 mg/mL), and preheating in a 37° C. water bath; preparing of test compound and control compound spiking solution: adding 5 μL compound stock solution ([…]) into 95 μL acetonitrile; preparing of 1.5 μM spiking solution in microsomes (0.75 mg/mL): adding 1.5 μL spiking solution and 18.75 μL liver microsomes solution (20 mg/mL) into 479.75 μL K3PO4 buffer; taking 30 μL spiking solution in microsomes to the multi-well plate and incubating at 37° C. for 5 minutes; adding 15 μL NADPH stock solution into each well to start the reaction, and timing; respectively at 0 min, 5 min, 15 min, 30 min and 45 min, adding 150 μL of IS-containing acetonitrile solution to terminate the reaction; shaking for 10 mins and then centrifuging at 6000 rpm for 15 mins; taking 80 μL of the supernatant from each well for LC/MS detection and calculating T1/2.
(§3) Note: The mice and human liver microsomes used in the experiments are purchased from Xenotech.

[3] = In vitro liver microsome stability test (human); assay type: in vitro ADME; settings: human liver microsomes, NADPH, 37° C., 0-45 min
Method: as §1, §2, §3

[4] = tested on: HEK293T-mtkeima cells; experiment: Selective induction of mitophagy after CCCP-induced mitochondrial damage; assay type: cell-based, human; settings: 5 uM or 10 uM CCCP pre-treatment compared with no CCCP treatment

SMILES | Ability to induce mitophagy [1] | other results
CN=S(=O)(Nc1cc(SCC(=O)O)c(O)c2ccccc12)c1ccc(Br)cc1 (centres unmarked) [Compound I-4] | +++ (strong ability to induce mitophagy (number of cells in which mitophagy occurs/number of total cells >0.30)) | Strength of mitophagy induction compared with UMI-77 (FIG. 1) ([1]; cells not treated with CCCP): induces mitophagy more strongly than UMI-77; Liver microsome stability [2]: relatively superior stability; Liver microsome stability [3]: relatively superior stability
CN=S(=O)(Nc1cc(SCC(=O)O)c(O)c2ccccc12)c1cccc(-c2ccccc2)c1 (centres unmarked) [Compound I-22] | ++ (moderate ability to induce mitophagy (number of cells in which mitophagy occurs/number of total cells is in the range of 0.2~0.3)) | 
O=C(O)CSc1cc(NS(=O)(=Nc2ccccc2)c2ccc(Br)cc2)c2ccccc2c1O (centres unmarked) [Compound I-8] | ++ (moderate ability to induce mitophagy (number of cells in which mitophagy occurs/number of total cells is in the range of 0.2~0.3)) | 
CN=S(=O)(Nc1cc(SCC(=O)O)c(O)c2ccccc12)c1ccc(C(F)(F)F)cc1 (centres unmarked) [Compound I-19] | +++ (strong ability to induce mitophagy (number of cells in which mitophagy occurs/number of total cells >0.30)) | 
CN=S(=O)(Nc1cc(SCc2nn[nH]n2)c(O)c2ccccc12)c1ccc(Br)cc1 (centres unmarked) [Compound I-12] | +++ (strong ability to induce mitophagy (number of cells in which mitophagy occurs/number of total cells >0.30)) | 
CN=S(=O)(Nc1cc(SCc2nnc[nH]2)c(O)c2ccccc12)c1ccc(Br)cc1 (centres unmarked) [Compound I-13] | ++ (moderate ability to induce mitophagy (number of cells in which mitophagy occurs/number of total cells is in the range of 0.2~0.3)) | 
CN=S(=O)(Nc1cc(SCC(=O)O)c(O)c2ccccc12)c1ccc2ccccc2c1 (centres unmarked) [Compound I-20] | ++ (moderate ability to induce mitophagy (number of cells in which mitophagy occurs/number of total cells is in the range of 0.2~0.3)) | 
CN(c1cc(SCC(=O)O)c(O)c2ccccc12)S(=O)(=O)c1ccc(Br)cc1 [Compound I-1] | +++ (strong ability to induce mitophagy (number of cells in which mitophagy occurs/number of total cells >0.30)) | Liver microsome stability [2]: relatively superior stability; Liver microsome stability [3]: relatively superior stability; Selective induction of autophagy in damaged mitochondria (FIG. 2) [4]: more likely to induce autophagy in damaged mitochondria
O=C(O)CSc1cc(NS(=O)(=NC2CC2)c2ccc(Br)cc2)c2ccccc2c1O (centres unmarked) [Compound I-5] | +++ (strong ability to induce mitophagy (number of cells in which mitophagy occurs/number of total cells >0.30)) | 
O=C(O)CSc1cc(N2CCN=S2(=O)c2ccc(Br)cc2)c2ccccc2c1O (centres unmarked) [Compound I-10] | ++ (moderate ability to induce mitophagy (number of cells in which mitophagy occurs/number of total cells is in the range of 0.2~0.3)) | 
CN=S(=O)(c1ccc(Br)cc1)N(C)c1cc(SCC(=O)O)c(O)c2ccccc12 (centres unmarked) [Compound I-9] | ++ (moderate ability to induce mitophagy (number of cells in which mitophagy occurs/number of total cells is in the range of 0.2~0.3)) | 
CN=S(=O)(Nc1cc(SCC(=O)O)c(O)c2ccccc12)c1cccs1 (centres unmarked) [Compound I-21] | +++ (strong ability to induce mitophagy (number of cells in which mitophagy occurs/number of total cells >0.30)) | 
CN=S(=O)(Nc1cc(SCC(=O)O)c(OC(C)=O)c2ccccc12)c1ccc(Br)cc1 (centres unmarked) [Compound I-14] | ++ (moderate ability to induce mitophagy (number of cells in which mitophagy occurs/number of total cells is in the range of 0.2~0.3)) | 
O=C(O)CSc1cc(N(c2ccccc2)S(=O)(=O)c2ccc(Br)cc2)c2ccccc2c1O [Compound I-3] | ++ (moderate ability to induce mitophagy (number of cells in which mitophagy occurs/number of total cells is in the range of 0.2~0.3)) | 
O=C(O)CSc1cc(N(CCO)S(=O)(=O)c2ccc(Br)cc2)c2ccccc2c1O [Compound I-2] | ++ (moderate ability to induce mitophagy (number of cells in which mitophagy occurs/number of total cells is in the range of 0.2~0.3)) | 
O=C(O)CSc1cc(N2CCCN=S2(=O)c2ccc(Br)cc2)c2ccccc2c1O (centres unmarked) [Compound I-11] | ++ (moderate ability to induce mitophagy (number of cells in which mitophagy occurs/number of total cells is in the range of 0.2~0.3)) | 
CN=S(=O)(Nc1cc(SCC(=O)O)c(O)c2ccccc12)c1ccc(-c2ccccc2)cc1 (centres unmarked) [Compound I-18] | ++ (moderate ability to induce mitophagy (number of cells in which mitophagy occurs/number of total cells is in the range of 0.2~0.3)) | 
O=C(O)CSc1cc(NS(=O)(=O)c2ccc(Br)cc2)c2ccccc2c1O [UMI-77, reference compound] | + (weak ability to induce mitophagy (number of cells in which mitophagy occurs/number of total cells is in the range of 0.1~0.2)) | Liver microsome stability [2]: unstable; Liver microsome stability [3]: unstable; Selective induction of autophagy in damaged mitochondria (FIG. 2) [4]: unable to selectively induce autophagy in damaged mitochondria
O=C(O)CSc1cc(NS(=O)(=NC2COC2)c2ccc(Br)cc2)c2ccccc2c1O (centres unmarked) [Compound I-6] | +++ (strong ability to induce mitophagy (number of cells in which mitophagy occurs/number of total cells >0.30)) | 
CN=S(=O)(Nc1cc(SCC(=O)O)c(O)c2ccccc12)c1ccc(Oc2ccccc2)cc1 (centres unmarked) [Compound I-17] | +++ (strong ability to induce mitophagy (number of cells in which mitophagy occurs/number of total cells >0.30)) | 
